This note sets out measurements from patent US12312625B2, “Engineering strain producing cordycepin and its derivative 3′-deoxyinosine, its preparation method and application” (DALIAN UNIVERSITY, priority 2022, dated 2025).

The test system of the test is Pichia pastoris GS115 strain. The test is described as follows: Cordycepin tolerance test (growth curves of yeast in YPD medium with cordycepin). The test is classed as cell-based. The note with it: 30° C., biomass measured every 2h, FIG. 5. The source says:
In order to detect the tolerance of yeast strains to cordycepin, the inventor thus provides a method of detecting the tolerance of yeast strains to cordycepin. The Pichia pastoris GS115 strain is activated and inoculated into a 96-deep porous plate containing YPD medium, with the inoculation concentration at about OD600=0.4, supplemented with the cordycepin solutions under different concentrations (0.1, 1.0, 2.0, 5.0 g·L^−1). The broth without cordycepin is used as the control, and the porous plate is placed into BioScreene, cultured by shaking at constant temperature of 30° C., and the biomass of the strain is measured every 2h. Triplicates are set in each group, and an average value of the triplicate is calculated to draw a growth curve of yeast strains under the effect of different concentrations of cordycepin. […] As mentioned above, the cordycepin yield has exceeded 2.0 g/L, so the stress tolerance of the strain needs to be considered.

For `Nc1ncnc2c1ncn2[C@@H]1O[C@H](CO)C[C@H]1O` [cordycepin], the “growth of yeast strains” value reads like this: (YPD medium containing 2-5 g/L cordycepin) “severely inhibited”; (YPD medium, 1 g/L cordycepin) “slight impact”; (YPD medium, cordycepin below 0.1 g/L) “almost has no effect”.
